Patent US12187727B2, “Methods for antagonizing a melanocortin 4 receptor” (Pfizer Inc., priority 2020, dated 2025)

Each molecule was assayed against human Melanocortin-4 receptor (MC4R) (Homo sapiens (Human), UniProt P32245) (assay: Functional in vitro MC4R antagonist potency assay (cAMP HTRF in CHO cells)). Conditions: human MC4R in CHO cells, cAMP HTRF, 200 nM aMSH challenge; Kb from IC50 by Leff-Dougall equation; geometric mean; read-out: Kb (nM) Antagonist geometric.
Chain of human Melanocortin-4 receptor (MC4R) (P32245 whole entry): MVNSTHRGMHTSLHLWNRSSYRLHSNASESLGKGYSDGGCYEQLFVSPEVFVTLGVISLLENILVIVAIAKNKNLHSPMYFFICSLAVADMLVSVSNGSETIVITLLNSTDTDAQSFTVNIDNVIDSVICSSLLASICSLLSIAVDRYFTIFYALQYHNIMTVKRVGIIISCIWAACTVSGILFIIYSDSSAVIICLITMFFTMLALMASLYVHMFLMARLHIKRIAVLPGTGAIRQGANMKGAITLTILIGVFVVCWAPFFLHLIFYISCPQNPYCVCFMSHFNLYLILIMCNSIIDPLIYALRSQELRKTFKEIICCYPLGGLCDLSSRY
Type: cell-based
Procedure: Example BB. Functional In Vitro MC4R Antagonist Potency Assay
The functional in vitro antagonist potency for test compounds was determined by monitoring intracellular cyclic adenosine monophosphate (cAMP) levels in Chinese hamster ovary (CHO—) cells stably expressing the human Melanocortin-4 receptor (MC4R). Following agonist activation, human MC4R associates with the G-protein complex causing the Gα subunit to exchange bound GDP for GTP, followed by dissociation of the Ga-GTP complex. The activated Gα subunit can couple to downstream effectors to regulate the levels of second messengers or cAMP within the cell. Thereby, determination of intracellular cAMP levels allows for pharmacological characterization. Intracellular cAMP levels are quantitated using a homogenous assay utilizing the Homogeneous Time-Resolved Fluorescence (HTRF) technology from CisBio. The method is a competitive immunoassay between native cAMP produced by cells and the cAMP labelled with the acceptor dye, d2. The two entities then compete for binding to a monoclonal anti-cAMP antibody labeled with cryptate. The specific signal is inversely proportional to the concentration of cAMP in the cells.
Test compounds were solubilized to 30 mM in 100% dimethyl sulfoxide (DMSO) and stored. […] The final compound concentration range in the assay was 400 nM to […], with a final DMSO concentration of 0.1%.
(95% O2: 5% CO2) overnight, with micro-clime lids (Labcyte, Cat No. LLS-0310). […] Cells were incubated with compound for 30 minutes at 37° C. (95% O2: 5% CO2) before addition of 5 μL EC80, agonist stimulation (200 nM α-melanocyte stimulating hormone, aMSH, Bachem) and another 30-minute incubation at 37° C. (95% O2: 5% CO2). Intracellular cAMP levels were quantified as per Cisbio's protocol (5 uL of D2 and then 5 uL Cryptate, incubated for 1-2 hours at room temperature).
Data expressed as nM cAMP were then normalized to control wells using Activity Base (IDBS). Zero percent effect (ZPE) was defined as nM of cAMP generated from ECK, agonist stimulation (200 nM aMSH). In the absence of an antagonist control compound, one hundred percent effect (HPE) was defined as nM of cAMP generated from assay buffer/vehicle only.
`COc1cc([C@@H](C)C(=O)N2CC[C@@]3(CCc4cc(-c5ncc(F)cn5)c(C)nc4N3)C2)c(F)cn1` [Example 146, (2R)-2-(5-fluoro-2-methoxypyridin-4-yl)-1-[(2S)-6-(5-fluoropyrimidin-2-yl)-7-methyl-3,4-dihydro-1H-spiro[1,8-naphthyridine-2,3′-pyrrolidin]-1′-yl]propan-1-one] showed a Kb of 1.2 nM.
In the case of `COc1cc([C@@H](C)C(=O)N2CC[C@@]3(CCc4cc(-c5cnn(C)c5)c(C)nc4N3)C2)c(Cl)cn1` (single isomer, unassigned) [Example 104], the Kb is reported as 0.06 nM.
With `COc1cc([C@@H](C)C(=O)N2CC[C@]3(CCc4cc(-c5nnn(C)n5)c(C)nc4N3)C2)c(F)cn1` [Example 116, (2R)-2-(5-fluoro-2-methoxypyridin-4-yl)-1-[(2R)-7-methyl-6-(2-methyl-2H-tetrazol-5-yl)-3,4-dihydro-1H-spiro[1,8-naphthyridine-2,3′-pyrrolidin]-1′-yl]propan-1-one] the Kb was 1.7 nM.
`COc1cc([C@@H](C)C(=O)N2CC[C@@]3(CCc4cc(-c5cccc(C(F)F)n5)c(C)nc4N3)C2)c(F)cn1` [Example 181, (2R)-1-{(2S)-6-[6-(difluoromethyl)pyridin-2-yl)-7-methyl-3,4-dihydro-1H-spiro[1,8-naphthyridine-2,3′-pyrrolidin]-1′-yl}-2-(5-fluoro-2-methoxypyridin-4-yl)propan-1-one] showed a Kb of 14 nM.
`COc1cc([C@@H](C)C(=O)N2CC[C@@]3(CCc4cc(C5CCOCC5)c(C)nc4N3)C2)c(F)cn1` [Example 131, (2R)-2-(5-fluoro-2-methoxypyridin-4-yl)-1-[(2S)-7-methyl-6-(oxan-4-yl)-3,4-dihydro-1H-spiro[1,8-naphthyridine-2,3′-pyrrolidin]-1′-yl]propan-1-one] showed a Kb of 16 nM.
`COc1cc([C@@H](C)C(=O)N2CC[C@@]3(CCc4cc(-c5nc(C(F)F)n(C)n5)c(C)nc4N3)C2)c(F)cn1` [Example 122, (2R)-1-{(2S)-6-[5-(difluoromethyl)-1-methyl-1H-1,2,4-triazol-3-yl]-7-methyl-3,4-dihydro-1H-spiro[1,8-naphthyridine-2,3′-pyrrolidin]-1′-yl}-2-(5-fluoro-2-methoxypyridin-4-yl)propan-1-one] was tested, and the Kb was 0.11 nM.
`COc1cc([C@](C)(F)C(=O)N2CC[C@@]3(CCc4cc(-c5ncccn5)c(C)nc4N3)C2)c(F)cn1` (single isomer, unassigned) [Example 148] gave a Kb of 19 nM.
In the case of `COc1cc([C@@H](C)C(=O)N2CC[C@@]3(CCc4cc(-c5ncc(C(F)(F)F)cn5)c(C)nc4N3)C2)c(F)cn1` [Example 145, (2R)-2-(5-fluoro-2-methoxypyridin-4-yl)-1-{(2S)-7-methyl-6-[5-(trifluoromethyl)pyrimidin-2-yl]-3,4-dihydro-1H-spiro[1,8-naphthyridine-2,3′-pyrrolidin]-1′-yl}propan-1-one], the Kb is reported as 54 nM.
Work on `Cc1nc2c(cc1-c1ncccn1)CC[C@@]1(CCN(C(=O)[C@H](C)c3ccc(F)cc3F)C1)N2` (single isomer, unassigned) [Example 190] yielded a Kb of 5.9 nM.
Work on `COc1cc([C@@H](C)C(=O)N2CC[C@@]3(CCc4cc(-c5nc6n(n5)CCC6(F)F)c(C)nc4N3)C2)c(F)cn1` [Example 147, (2R)-1-[(2S)-6-(7,7-difluoro-6,7-dihydro-5H-pyrrolo[12-b][1,2,4]triazol-2-yl)-7-methyl-3,4-dihydro-1H-spiro[1,8-naphthyridine-2,3′-pyrrolidin]-1′-yl]-2-(5-fluoro-2-methoxypyridin-4-yl)propan-1-one] yielded a Kb of 0.57 nM.
With `COc1cc([C@@H](C)C(=O)N2CC[C@@]3(CCc4cc(-c5cccc(OC(F)F)n5)c(C)nc4N3)C2)c(F)cn1` [Example 198, (2R)-1-{(2S)-6-[6-(difluoromethoxy)pyridin-2-yl]-7-methyl-3,4-dihydro-1H-spiro[1,8-naphthyridine-2,3′-pyrrolidin]-1′-yl}-2-(5-fluoro-2-methoxypyridin-4-yl)propan-1-one] the Kb was 8.3 nM.
Work on `COc1cc([C@@H](C)C(=O)N2CC[C@@]3(CCc4cc(-c5cnn6cccnc56)c(C)nc4N3)C2)c(F)cn1` [Example 154, (2R)-2-(5-fluoro-2-methoxypyridin-4-yl)-1-[(2S)-7-methyl-6-(pyrazolo[1,5-a]pyrimidin-3-yl)-3,4-dihydro-1H-spiro[1,8-naphthyridine-2,3′-pyrrolidin]-1′-yl]propan-1-one] yielded a Kb of 9.5 nM.
With `COc1cc([C@@H](C)C(=O)N2CC[C@@]3(CCc4cc(-c5cnc(C)nc5)c(C)nc4N3)C2)c(F)cn1` [Example 151, (2R)-2-(5-fluoro-2-methoxypyridin-4-yl)-1-[(2S)-7-methyl-6-(2-methylpyrimidin-5-yl)-3,4-dihydro-1H-spiro[1,8-naphthyridine-2,3′-pyrrolidin]-1′-yl]propan-1-one] the Kb was 40 nM.
`COc1cc([C@@H](C)C(=O)N2CCC3(CCc4cc(-c5nc(OC)n(C)n5)c(C)nc4N3)C2)c(F)cn1` (single isomer, unassigned) [Example 112] showed a Kb of 2 nM.
For `COc1cc([C@@H](C)C(=O)N2CC[C@@]3(CCc4cc(-c5ccccn5)c(C)nc4N3)C2)c(F)cn1` [Example 140, (2R)-2-(5-fluoro-2-methoxypyridin-4-yl)-1-[(2S)-7-methyl-6-(pyridin-2-yl)-3,4-dihydro-1H-spiro[1,8-naphthyridine-2,3′-pyrrolidin]-1′-yl]propan-1-one], the Kb was 19 nM.
`COc1cc([C@@H](C)C(=O)N2CC[C@@]3(CCc4cc(-c5cnn(C)n5)c(C)nc4N3)C2)c(F)cn1` [Example 118, (2R)-2-(5-fluoro-2-methoxypyridin-4-yl)-1-[(2S)-7-methyl-6-(2-methyl-2H-1,2,3-triazol-4-yl)-3,4-dihydro-1H-spiro[1,8-naphthyridine-2,3′-pyrrolidin]-1′-yl]propan-1-one] showed a Kb of 0.93 nM.

Same assay, conditions: read-out: Kb (nM) Antagonist geometric mean
Molecule `COc1cc([C@@H](C)C(=O)N2CC[C@@]3(CCc4cc(-c5cn(C(F)(F)F)c(C)n5)c(C)nc4N3)C2)c(F)cn1` [Example 27, (2R)-2-(5-fluoro-2-methoxypyridin-4-yl)-1-{(2S)-7-methyl-6-[2-methyl-1-(trifluoromethyl)-1H-imidazol-4-yl]-3,4-dihydro-1H-spiro[1,8-naphthyridine-2,3′-pyrrolidin]-1′-yl}propan-1-one] has a Kb of 4.6 nM.
Molecule `COc1cc([C@@H](C)C(=O)N2CC[C@@]3(CCc4cc(-c5nc(C(F)(F)F)n(C)n5)c(C)nc4N3)C2)c(F)cn1` (single isomer, unassigned) [Example 92] has a Kb of 0.16 nM.
`Cc1nc2c(cc1-c1cnn(C)c1)CC[C@@]1(CCN(C(=O)Cc3ccc(F)cc3)C1)N2` (stereo in doubt) [Example 89, 2-(4-fluorophenyl)-1-[7-methyl-6-(1-methyl-1H-pyrazol-4-yl)-3,4-dihydro-1H-spiro[1,8-naphthyridine-2,3′-pyrrolidin]-1′-yl]ethan-1-one] showed a Kb of over 40 nM.
`COc1cc(OC)cc([C@@H](C)C(=O)N2CC[C@@]3(CCc4cc(-c5cnn(C)c5)c(C)nc4N3)C2)c1` (single isomer, unassigned) [Example 90] was tested, and the Kb was 0.4 nM.
With `COc1cc([C@@H](C)C(=O)N2CCC3(CCc4cc(-c5coc(C)n5)c(C)nc4N3)C2)c(F)cn1` (mixture of isomers) [Example 33, (2R)-2-(5-fluoro-2-methoxypyridin-4-yl)-1-[7-methyl-6-(2-methyl-1,3-oxazol-4-yl)-3,4-dihydro-1H-spiro[1,8-naphthyridine-2,3′-pyrrolidin]-1′-yl]propan-1-one] the Kb was 3.2 nM.
In the case of `COc1cc([C@@H](C)C(=O)N2CC[C@@]3(CCc4ccc(C)nc4N3)C2)nc(C)n1` (single isomer, unassigned) [Example 23, 2-(6-methoxy-2-methylpyrimidin-4-yl)-1-(7-methyl-3,4-dihydro-1H-spiro[1,8-naphthyridine-2,3′-pyrrolidin]-1′-yl)propan-1-one], the Kb is reported as 24 nM.
For `COc1cc([C@@H](C)C(=O)N2CC[C@@]3(CCc4cc(-c5ncccn5)c(C)nc4N3)C2)cc(OC)n1` (single isomer, unassigned) [Example 83], the Kb was 0.54 nM.
Molecule `COc1cc([C@@H](C)C(=O)N2CC[C@@]3(CCc4ccc(C)nc4N3)C2)c(Cl)cn1` (single isomer, unassigned) [Example 100] has a Kb of 5.5 nM.
For `COc1cc([C@@H](C)C(=O)N2CC[C@@]3(CCc4ccc(C)nc4N3)C2)c(F)cn1` (single isomer, unassigned) [Example 98], the Kb was 19 nM.
`COc1cc([C@@H](C)C(=O)N2CC[C@@]3(CCc4cc(-c5ncc(C(F)F)cn5)c(C)nc4N3)C2)c(F)cn1` [Example 21, (2R)-1-{(2S)-6-[5-(difluoromethyl)pyrimidin-2-yl]-7-methyl-3,4-dihydro-1H-spiro[1,8-naphthyridine-2,3′-pyrrolidin]-1′-yl}-2-(5-fluoro-2-methoxypyridin-4-yl)propan-1-one] showed a Kb of 20 nM.
